Data taken from patent publication EP2794556B1, “BIS-(ARYL/HETEROARYL)-METHYLENE COMPOUNDS, PHARMACEUTICAL COMPOSITIONS CONTAINING SAME AND THEIR USE FOR TREATING CANCER” (Gleason, James L., priority 2011, dated 2013).
Read-outs that look alike come from different tables or passages of the source.

What was measured:
VDR = molecular target: T1, VDR (Homo sapiens, UniProt P11473); experiment: VDR agonism by induction of CYP24 gene expression (RT/PCR); assay type: cell-based; details: for VDR agonist activity and potency, induction of CYP24 gene expression: 1d; for VDR agonism by induction of CYP24 gene expression: screen at 10 µM, Fig. 1a
T1 construct: endogenous in cells; host or cells: SCC25 human head and neck squamous carcinoma cells
T1 sequence (P11473 1-427): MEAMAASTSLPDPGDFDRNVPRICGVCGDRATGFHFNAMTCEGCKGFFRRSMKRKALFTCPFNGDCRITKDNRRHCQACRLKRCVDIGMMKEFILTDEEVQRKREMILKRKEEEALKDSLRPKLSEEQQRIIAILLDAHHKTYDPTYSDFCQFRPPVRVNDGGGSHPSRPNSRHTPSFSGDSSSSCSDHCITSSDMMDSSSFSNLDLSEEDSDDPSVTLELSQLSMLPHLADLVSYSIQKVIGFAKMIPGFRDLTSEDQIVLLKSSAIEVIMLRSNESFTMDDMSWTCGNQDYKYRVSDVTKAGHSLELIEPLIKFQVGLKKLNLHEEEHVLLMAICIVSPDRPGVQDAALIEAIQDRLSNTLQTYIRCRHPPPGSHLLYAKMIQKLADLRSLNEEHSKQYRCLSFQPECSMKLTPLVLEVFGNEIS
Procedure: Cell culture. Human head and neck squamous carcinoma cell lines SCC4 and SCC45 and mouse HNSCC line AT84 were purchased from American Type Culture Collection (Manassas, VA) and cultured under recommended conditions. Cells were split at 60-70% confluence, as follows: cells were washed with filtered PBS, split with a 5-10 min incubation with 1 ml Trypsin-EDTA (Invitrogen, Carlsbad, CA) in PBS, collected with medium. Following centrifugation, the supernatant was removed. Cell pellets were resuspended with DMEM-F12, and distributed on fresh media-containing dishes. For treatments, AT84 cells were split and 24h later medium was changed to DMEM + 10% charcoal-stripped FBS.
RNA isolation and RT/PCR analysis. […]. Proc. Nat. Acad. Sci. U.S.A. 105, 8250-55. and Lamblin, M.et al Bioorganic & Medicinal Chemistry (2010) 18:4119-4137. After treatment, cells were washed with PBS, homogenized with 1ml TRIzol Reagent (Invitrogen, Carlsbad, CA), kept at room temperature for 2-5 min, collected and kept at -80 °C for at least 1h. After, thawing 0.2 ml chloroform was added. After vigorous mixing and storing for 10min, mixtures were centrifuged (10,000rpm, 15 min, 4 °C) and the upper transparent layer was transferred to a new tube. 0.5 ml isopropanol was added and the new solution was mixed. After centrifuging at 4 °C, the supernatant was discarded and 1ml of 75% ethanol was added. After centrifuging and discarding the supernatant, the pellet was air-dried for 5-10 min, and then dissolved in ddH2O. RNA concentrations were measured using a spectrophotometer, and 1-3µg of RNA were loaded for reverse transcriptase reactions (total volume: 20 µl). 80µl of ddH2O was added to the RT-product, and 1.5µl of that was used as template for the PCR reaction. Reverse transcriptase (Super Script II) was purchased from Invitrogen (Carlsbad, CA). DNA polymerase and dNTP's were ordered from Fermentas (Glen Burnie, MD).
Test compounds (10 µM) were first screened for VDR agonism by analysis of induction of CYP24 gene expression in 1,25D-sensitive human SCC25 cells. […]. Consistent with binding to the VDR, induction of CYP24 by compound JF-B01, compound JF-B53 or compound 16 (JF-B54) was blocked (Fig. 1c). […]

SCC4 cells [1] = experiment: EdU cell growth assay; details: 1,25D-resistant SCC4 cells, Fig. 2e, f
Procedure: (§1) EdU cell growth assay. Click-iT EdU Alexa Fluor high-throughput imaging (HCS) assay for cell proliferation. HCS assays were performed on AT84 mouse squamous carcinoma cell line (ATCC) following the manufacturer's instruction (Molecular Probes, Invitrogen). […] All samples were in triplicate.

SCC4 cells [2] = experiment: LDH cytotoxicity assay; assay type: cell-based, human; details: vitamin D resistant SCC4 cells, Figures 10 and 11
Procedure: The cytotoxic effects of compounds were screened using a Cytotoxicity Assay Kit (Cayman Chemical), which measures release of the soluble […] enzyme lactate dehydrogenase (LDH) from dying cells into the culture medium using a coupled two-step reaction. LDH in the media catalyzes the reduction of NAD+ to NADH and H+ by oxidation of lactate to pyruvate. LDH-catalyzed NADH production is then measured by following diaphorase catalyzed NADH-dependent reduction of a tetrazolium salt (INT) to highly-colored formazan which absorbs strongly at 490-520 nm.
The proliferation assays above indicated the cessation of growth.

HDAC3 = HDAC3 (Homo sapiens, UniProt O15379); experiment: Fluorogenic HDAC inhibition assay, purified enzyme
Chain of HDAC3 (O15379 whole entry, species assumed): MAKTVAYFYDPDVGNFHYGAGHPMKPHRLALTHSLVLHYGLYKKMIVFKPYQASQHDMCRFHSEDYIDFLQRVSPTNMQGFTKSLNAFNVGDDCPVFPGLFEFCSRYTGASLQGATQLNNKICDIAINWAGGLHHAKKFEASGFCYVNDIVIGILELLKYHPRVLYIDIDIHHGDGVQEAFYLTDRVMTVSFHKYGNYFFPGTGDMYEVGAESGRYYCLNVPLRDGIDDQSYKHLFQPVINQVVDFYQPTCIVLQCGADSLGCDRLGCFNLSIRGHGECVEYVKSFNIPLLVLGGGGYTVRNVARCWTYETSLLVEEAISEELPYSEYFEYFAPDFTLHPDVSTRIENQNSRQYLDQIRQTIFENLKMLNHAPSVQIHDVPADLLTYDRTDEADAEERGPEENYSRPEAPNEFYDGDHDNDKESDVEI
Chain of HDAC3 (Q9Y618 395-489 partner limits assumed, species assumed): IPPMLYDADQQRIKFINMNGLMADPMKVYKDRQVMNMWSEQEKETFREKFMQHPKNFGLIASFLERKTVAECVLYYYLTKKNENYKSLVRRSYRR
Procedure: (§2) Fluorogenic HDAC inhibition assay. Boc-Lys(Ac)-7-amino-4-methylcoumarin (Boc-Lys(Ac)-AMC) was used as substrate for the HDAC assays. […] Trypsin was used to stop the reaction, releasing free AMC. The trypsin solution was prepared as follow: trypsin was dissolved in HDAC buffer to give a concentration of 10 mg/mL. Release of AMC was monitored by measuring the fluorescence at 460 nm (lex = 390 nm) with a microplate reader (SpectraMax Gemini) at 37 °C. The AMC signals were recorded against a blank with buffer, substrate and trypsin but without the enzyme. All experiments were carried out at least in triplicate.
(§3) For standard HDAC assays, 50 µL of HDAC buffer was mixed with 10 µL of diluted enzyme solution in HDAC buffer at room temperature. The HDAC reaction was started by adding 40 µL of substrate solution in HDAC buffer followed by 30 min of incubation with stirring at 37 °C. The reaction was stopped by adding 100 µL of trypsin solution. After a 10 min incubation with stirring at 37 °C, the release of AMC was monitored by measuring the fluorescence. For HDAC inhibition assays, inhibitor diluted in 50 µL of HDAC buffer was mixed with 10 µL of diluted enzyme solution in HDAC buffer at room temperature. The HDAC reaction was started by adding 40 µL of substrate solution in HDAC buffer followed by 30 min of incubation with stirring at 37 °C. The reaction was stopped by adding 100 µL of trypsin solution. After a 10 min incubation with stirring at 37 °C, the release of AMC was monitored by measuring the fluorescence.

SCC4 cells [3] = experiment: MTS cell proliferation assay; assay type: cell-based, human; details: vitamin D resistant SCC4 cells, Figures 7c, 8 and 9
Text: Dose-dependent effects of compounds on cell cycle progression was monitored using a CellTiter 96 Aqueous Non-Radioactive Cell Proliferation Assay Kit (Promega). The assay composed of solutions of a novel tetrazolium compound (MTS) and an electron coupling reagent (phenazine methosulfate; PMS). MTS is reduced by metabolically active cells into a soluble formazan product that absorbs at 490nm. The quantity of formazan product absorbing at 490nm is directly proportional to the number of living cells.

AT84 cells = experiment: EdU cell growth assay; details: 1,25D-sensitive AT84 cells, Fig. 2d
Procedure: as §1

HDAC6 = molecular target: T2, HDAC6 (Homo sapiens, UniProt Q9UBN7); experiment: Fluorogenic HDAC inhibition assay, purified enzyme
T2 sequence (Q9UBN7 1-1215): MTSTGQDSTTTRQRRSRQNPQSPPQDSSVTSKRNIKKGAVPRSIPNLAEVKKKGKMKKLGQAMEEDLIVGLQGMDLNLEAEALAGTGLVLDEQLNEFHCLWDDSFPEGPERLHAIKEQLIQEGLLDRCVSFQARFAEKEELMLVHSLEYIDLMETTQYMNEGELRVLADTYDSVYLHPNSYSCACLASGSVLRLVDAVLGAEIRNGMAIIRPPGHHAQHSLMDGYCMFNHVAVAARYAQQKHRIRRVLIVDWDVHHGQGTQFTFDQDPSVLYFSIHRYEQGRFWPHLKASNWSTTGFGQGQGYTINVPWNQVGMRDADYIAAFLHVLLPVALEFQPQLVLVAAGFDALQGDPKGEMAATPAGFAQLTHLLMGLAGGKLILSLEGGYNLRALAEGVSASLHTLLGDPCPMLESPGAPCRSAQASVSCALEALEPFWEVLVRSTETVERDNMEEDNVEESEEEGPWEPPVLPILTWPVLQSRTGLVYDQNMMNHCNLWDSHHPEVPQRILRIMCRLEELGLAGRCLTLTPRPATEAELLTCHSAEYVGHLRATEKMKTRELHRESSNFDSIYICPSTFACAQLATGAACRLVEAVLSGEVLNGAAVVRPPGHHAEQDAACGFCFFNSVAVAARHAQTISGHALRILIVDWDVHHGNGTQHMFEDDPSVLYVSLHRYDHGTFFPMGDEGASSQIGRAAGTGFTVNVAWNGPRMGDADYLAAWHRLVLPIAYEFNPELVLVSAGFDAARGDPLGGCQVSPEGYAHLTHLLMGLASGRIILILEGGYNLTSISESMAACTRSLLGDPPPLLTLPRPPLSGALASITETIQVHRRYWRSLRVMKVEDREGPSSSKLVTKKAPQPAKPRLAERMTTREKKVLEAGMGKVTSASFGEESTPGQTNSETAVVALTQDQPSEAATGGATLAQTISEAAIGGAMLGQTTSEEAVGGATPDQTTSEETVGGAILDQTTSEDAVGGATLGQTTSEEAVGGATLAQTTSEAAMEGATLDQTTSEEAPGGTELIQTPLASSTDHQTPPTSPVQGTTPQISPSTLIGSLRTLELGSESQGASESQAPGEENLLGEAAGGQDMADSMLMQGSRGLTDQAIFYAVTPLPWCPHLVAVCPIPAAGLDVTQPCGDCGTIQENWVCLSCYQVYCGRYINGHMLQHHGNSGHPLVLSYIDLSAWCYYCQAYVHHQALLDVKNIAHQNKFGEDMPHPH
Procedure: as §2, §3

Q: What does the source list for `CCC(CC)(c1ccc(OCC(=O)O)c(C)c1)c1ccc(OCC(=O)C(C)(C)C)c(C)c1` [JF-C11]?
A: VDR agonist activity and potency, induction of CYP24 gene expression (VDR; SCC25 cells, Fig. 1b): some agonist activity; inhibition of proliferation, EdU incorporation (SCC4 cells [1]): failed to block SCC4 proliferation

Q: Which “VDR agonism by induction of CYP24 gene expression” value (“VDR agonism by induction” below) (VDR; SCC25 cells) does the source give for `CCC(CC)(c1ccc(OCCO)c(C)c1)c1ccc(OCC(=O)NO)c(C)c1` [JF-B52, N-Hydroxy-2-(4-(3-(4-(2-hydroxvethoxy)-3-methylphenyl)pentan-3-yl)-2-methylphenoxy)acetamide] here?
A: Its value is “completely inactive”.

Q: `CCC(CC)(c1ccc(OCC(O)C(C)(C)C)c(C)c1)c1ccc(OCC(=O)NO)c(Br)c1` (centres unmarked) [DK-309, 2-(2-bromo-4-(3-(4-(2-hydroxy-3,3-dimethylbutoxy)-3-methylphenyl)pentan-3-yl)phenoxy)-N-hydroxyacetamide] was tested. Which “cytotoxicity, LDH release” value (SCC4 cells [2]) did it give?
A: Its value is “good cytotoxicity”.

Q: With `CCC(CC)(c1ccc(OCC(=O)NO)c(C)c1)c1cc(C)c(CCC(O)C(C)(C)C)s1` (centres unmarked) [DK-201, N-hydroxy-2-(4-(3-(5-(3-hydroxy-4,4-dimethylpentyl)-4-methylthiophen-2-yl)pentan-3-yl)-2-methylphenoxy)acetamide] as the molecule, how does the IC50 (HDAC3) read?
A: Its IC50 is 30.5 µM.

Q: What does the source list for `CCC(CC)(c1ccc(OCC(O)C(C)(C)C)c(C)c1)c1c[nH]c2cc(CCC(=O)NO)ccc12` (centres unmarked) [DK-222, N-hydroxy-3-(3-(3-(4-(2-hydroxy-3,3-dimethylbutoxy)-3-methylphenyl)pentan-3-yl)-1H-indol-6-yl)propanamide]?
A: antiproliferative potency (SCC4 cells [3]): low micromolar potency; cytotoxicity, LDH release (SCC4 cells [2]): good cytotoxicity

Q: With `CCC(CC)(c1ccc(OCC(=O)NO)c(C)c1)c1ccc(OCC(CO)CO)c(C)c1` [JF-B21] as the molecule, how does the “VDR agonism by induction” value (VDR; SCC25 cells) read?
A: The value was “completely inactive”.

Q: What about the “inhibition of proliferation, EdU incorporation” value (AT84 cells) of the same molecule?
A: Its value is “failed to block AT84 proliferation”.

Q: What about the “inhibition of proliferation, EdU incorporation” value (SCC4 cells [1]) of the same molecule?
A: The value was “failed to block SCC4 proliferation”.

Q: What about the IC50 (HDAC3) of the same molecule?
A: The IC50 was 36.1 µM.

Q: What about the IC50 (HDAC6) of the same molecule?
A: Its IC50 is 37.9 µM.

Q: With `CCC(CC)(c1ccc(OCC(O)C(C)(C)C)c(C)c1)c1cc(C)c(CCC(=O)NO)s1` (centres unmarked) [DK-178, N-hydroxy-3-(5-(3-(4-(2-hydroxy-3,3-dimethylbutoxy)-3-methylphenyl)pentan-3-yl)-3-methylthiophen-2-yl)propanamide] as the molecule, how does the antiproliferative potency (SCC4 cells [3]) read?
A: Its antiproliferative potency is “low micromolar potency”.

Q: What about the IC50 (HDAC3) of the same molecule?
A: The IC50 was 47.3 µM.

Q: What about the IC50 (HDAC6) of the same molecule?
A: The IC50 was 24.9 µM.

Q: For `CCC(CC)(c1ccc(OCC(O)C(C)(C)C)c(C)c1)c1cn(C)c2cc(CCC(=O)NO)ccc12` (centres unmarked) [DK-234, N-hydroxy-3-(3-(3-(4-(2-hydroxy-3.3-dimethylbutoxy)-3-methylphenyl)pentan-3-yl)-1-methyl-1H-indol-6-yl)propanamide], which antiproliferative potency (SCC4 cells [3]) is on record?
A: Its antiproliferative potency is “low micromolar potency”.

Q: Which results are given for `CCC(CC)(c1ccc(OCCCCCC(=O)NO)cc1)c1ccc(OCC(O)C(C)(C)C)c(C)c1` (centres unmarked) [DK-367, N-hydroxy-6-(4-(3-(4-(2-hydroxy-3,3-dimethylbutoxy)-3-methylphenyl)pentan-3-yl)phenoxy)hexanamide]?
A: antiproliferative potency (SCC4 cells [3]): low micromolar potency; IC50 (HDAC6): 1.57 µM

Q: What does the source list for `CCC(CC)(c1ccc(OCC(=O)NO)c(C)c1)c1ccc(OCC(=O)NO)c(C)c1` [JF-B06]?
A: VDR agonism by induction of CYP24 gene expression (VDR; SCC25 cells): completely inactive; inhibition of proliferation, EdU incorporation (AT84 cells): failed to block AT84 proliferation; IC50 (HDAC6): 4.7 µM; IC50 (HDAC6; read-out: HDAC6 IC50, purified enzyme in vitro): 4.7 µM

Q: What does the source list for `CCC(CC)(c1ccc(OCC(=O)NO)c(C)c1)c1ccc(OCC(C)(C)O)c(C)c1` [JF-B53, N-Hydroxy-2-(4-(3-(4-(2-hydroxy-2-methylpropoxy)-3-methylphenyl)pentan-3-yl)-2-methylphenoxy)acetamide]?
A: induction of CYP24 by the compound was blocked (VDR; Fig. 1c, blocking agent not given): blocked; VDR agonist activity and potency, induction of CYP24 gene expression (VDR; SCC25 cells, Fig. 1b): VDR agonist activity, but with reduced potency; inhibition of proliferation, EdU incorporation (SCC4 cells [1]): partially blocked EdU incorporation; IC50 (HDAC3): 17 µM; IC50 (HDAC6): 33.3 µM

Q: Which “VDR agonist potency, fold lower compared to JF-B01” value (VDR; SCC25 cells, Fig. 1b) does the source give for `CCC(CC)(c1ccc(OCC(=O)NO)c(C)c1)c1ccc(OCC(=O)C(C)(C)C)c(C)c1` [JF-B59, 2-(4-(3-(4-(3,3-dimethyl-2-oxobutoxy)-3-methylphenyl)pentan-3-yl)-2-methylphenoxy)-N-hydroxyacetamide] here?
A: The value was over 10 fold.

Q: Which results are given for `CCC(CC)(c1ccc(OCCCC(=O)NO)c(C)c1)c1ccc(OC[C@H](O)C(C)(C)C)c(C)c1` [JFD-15]?
A: antiproliferative potency (SCC4 cells [3]): low micromolar potency; IC50 (HDAC3): 9.83 µM; IC50 (HDAC6): 47.1 µM

Q: With `CCC(CC)(c1ccc(CCC(=O)NO)c(C)c1)c1ccc(OC[C@H](O)C(C)(C)C)c(C)c1` [JFD-50] as the molecule, how does the antiproliferative potency (SCC4 cells [3]) read?
A: The antiproliferative potency was “low micromolar potency”.

Q: And the IC50 (HDAC3)?
A: The IC50 was 45.1 µM.

Q: What about the IC50 (HDAC6) of the same molecule?
A: Its IC50 is 36.1 µM.

Q: For `CCC(CC)(c1ccc(OCC(=O)NO)c(C)c1)c1ccc(OCC(O)CO)c(C)c1` (centres unmarked) [JF-B40], which “VDR agonism by induction” value (VDR; SCC25 cells) is on record?
A: The value was “completely inactive”.
